Test results reported in publication PMC6941357, “An in vitro toolbox to accelerate anti-malarial drug discovery and development” (Malaria Journal, 2020).
≈ marks a conversion by molar mass, not a printed value. Where “and” joins values, the source holds several entries; their conditions need not be identical. Identical values can stand only once.

What was measured:
[1] = Octanol/pH 7.4 buffer partition coefficient, shake flask; details: pH 7.4
Procedure, shortened: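 Both phases were measured by LC-MS, the aqueous phase after re-centrifugation, and the partition coefficient was taken as the octanol-to-buffer concentration ratio over two sampling times. Equal volumes of octanol, holding compound at two dilutions of a 3-30 mg/mL stock, and pH 7.4 phosphate/NaCl buffer were mixed at 37 °C.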

[2] = Solubility in biorelevant media; details: for solubility at 1 h: 37 °C, fassgf or other biorelevant; for solubility at 1 h / solubility: thermodynamic from solid
Procedure, shortened: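 LC–MS quantification of supernatants, after two centrifugations, in triplicate against calibration standards. Media: FaSSGF sampled at 1 h; FaSSIF-V2, FeSSIF-V2 and pH 7.4 PBS sampled at 5–6 h; all at 37 °C on an orbital mixer at 600 rpm.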

[3] = Plasma protein binding via ultracentrifugation (UC); assay type: in vitro ADME, human; details: pH 7.4
Procedure, shortened: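 Unbound fraction from ultracentrifugation of spiked pooled donor plasma, supernate pH checked and sampled for Cunbound. Ctotal and degradation taken from 37 °C control tubes at start and end; all samples mixed 1:1 with blank plasma or pH 7.4 buffer before analysis on shared calibration.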

[4] = target: T1, Albumax medium (lipid rich bovine serum albumin) (Bos taurus, UniProt P02769); assay: Binding in Albumax medium via ultracentrifugation; assay type: in vitro ADME; details: bovine
T1 construct: purchased Gibco, Thermo Fisher Scientific
T1 sequence (P02769 25-607): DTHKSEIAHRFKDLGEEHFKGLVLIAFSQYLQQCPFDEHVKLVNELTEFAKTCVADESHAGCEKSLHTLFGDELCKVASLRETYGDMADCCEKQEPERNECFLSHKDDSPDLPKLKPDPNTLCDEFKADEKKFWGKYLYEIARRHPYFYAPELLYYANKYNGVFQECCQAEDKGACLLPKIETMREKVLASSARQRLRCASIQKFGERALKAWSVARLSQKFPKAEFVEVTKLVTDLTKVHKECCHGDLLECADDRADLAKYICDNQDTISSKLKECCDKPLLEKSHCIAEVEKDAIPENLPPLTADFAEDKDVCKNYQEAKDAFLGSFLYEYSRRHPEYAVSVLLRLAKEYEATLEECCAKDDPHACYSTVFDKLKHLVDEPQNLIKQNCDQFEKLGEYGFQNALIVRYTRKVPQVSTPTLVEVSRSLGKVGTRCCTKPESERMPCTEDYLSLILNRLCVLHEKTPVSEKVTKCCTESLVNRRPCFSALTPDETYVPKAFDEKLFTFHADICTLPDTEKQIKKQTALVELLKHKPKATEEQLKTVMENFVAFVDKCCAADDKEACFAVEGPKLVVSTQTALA
Procedure, shortened: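 Unbound fraction (fu) taken as protein-free supernate concentration over total concentration after ultracentrifuging compound-spiked Albumax at 37 °C (5% or 10% CO2, or air). Analysis used 1:1 mixing with the opposite blank matrix against a common pH 7.4 calibration; degradation judged by start versus end Ctotal.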

[5] = Binding to human liver microsomes via ultracentrifugation; assay type: in vitro ADME; details: human, liver microsomes, read-out: Fraction unbound, HLM
Procedure, shortened: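 Unbound fraction by ultracentrifugation: Cunbound measured in protein-free supernate, Ctotal from spiked tubes held at 37 °C, sampled at start and end to check degradation. Matrix was 0.4 mg/mL human liver microsomal protein, 0.1 M phosphate pH 7.4; matrix-matched analysis against one calibration curve.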

[6] = In vitro metabolism (metabolic stability) in human liver microsomes; details: human, pH 7.4, HLM CLint
Procedure, shortened: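 Intrinsic clearance (µL/min/mg protein) came from the first-order substrate-depletion rate in human liver microsomes, using only the initial log-linear phase where kinetics deviated. Samples were quenched at 2, 5, 15, 30 and 60 min and quantified by LC–MS. Unbound CLint was obtained by dividing by microsomal fu.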

CYP2D6 = CYP2D6 (Homo sapiens, UniProt P10635); assay: Cytochrome P450 inhibition in human liver microsomes; details: for CYP2D6 % inhibition at max conc / inhibition at 20 µM: microsomes; for inhibition at 20 µM: human, pH 7.4
Sequence of CYP2D6 (P10635 whole entry, canonical isoform): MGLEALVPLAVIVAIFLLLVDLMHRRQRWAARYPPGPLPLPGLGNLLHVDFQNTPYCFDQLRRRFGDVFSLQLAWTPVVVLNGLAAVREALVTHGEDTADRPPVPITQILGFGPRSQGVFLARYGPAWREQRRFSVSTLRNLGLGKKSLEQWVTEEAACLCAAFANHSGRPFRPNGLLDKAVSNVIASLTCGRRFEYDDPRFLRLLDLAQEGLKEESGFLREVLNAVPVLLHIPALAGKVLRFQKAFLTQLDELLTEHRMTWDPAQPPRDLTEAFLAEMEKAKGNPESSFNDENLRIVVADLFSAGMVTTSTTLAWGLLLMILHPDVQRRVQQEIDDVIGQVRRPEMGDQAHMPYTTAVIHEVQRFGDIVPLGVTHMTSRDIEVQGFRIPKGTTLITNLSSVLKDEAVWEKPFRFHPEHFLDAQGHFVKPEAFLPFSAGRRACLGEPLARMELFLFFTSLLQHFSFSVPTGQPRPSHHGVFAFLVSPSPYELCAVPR
Procedure, shortened: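 Each compound is incubated with human liver microsomes and a probe substrate whose conversion is mediated by one CYP isoform. Reactions are then quenched with ice-cold acetonitrile, and the metabolite is determined by LC–MS.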

[7] = phosphate buffered saline pH 7.4, 37 °C, pH 7.4, aqueous buffer
[8] = human, neat pooled plasma, ultracentrifugation, neat plasma, read-out: Fraction unbound, human plasma
[9] = liver microsomes, human liver microsomes, average of n = 2 replicates, < 7 means < 15% loss over 60 min
[10] = FaSSGF, FaSSIF-V2, FeSSIF-V2 and PBS pH 7.4, 37 °C, pH 7.4, aqueous buffer
[11] = octanol/pH 7.4 phosphate buffered saline
[12] = human plasma, fraction unbound, read-out: Plasma fu

Row | SMILES | logD ([1]; octanol/pH 7.4 buffer) | solubility at 1 h ([2]; FaSSGF) | solubility ([2]; FaSSIF-V2, 37 °C, fassif) | solubility ([2]; FeSSIF-V2, 37 °C, fessif) | solubility [2, 7] | fraction unbound at […] [3, 8] | fraction unbound at […], 500 ng/mL ([4]; isolated protein, pH 7.4) | fraction unbound at […] ([5]; pH 7.4, 0.4 mg/mL protein) | microsomal CLint at 1 µM [6, 9] | IC50 (CYP2D6) | CYP2D6 % inhibition at max conc (CYP2D6) | further results
1 | CO[C@H]1O[C@@H]2O[C@@]3(C)CC[C@H]4[C@H](C)CC[C@@H]([C@H]1C)[C@@]24OO3 [Artemether] | 3.7 | 95 µg/mL and 320 µM | 166 µg/mL and 556 µM | 1040 µg/mL and 3480 µM | 109 µg/mL and 365 µM | 0.1 | 0.46 ± 0.039 | 0.5 ± 0.052 | 163 µL/min/mg | > 20 µM | nmi | 
2 | C[C@H]1[C@H](N2CCS(=O)(=O)CC2)O[C@@H]2O[C@@]3(C)CC[C@H]4[C@H](C)CC[C@@H]1[C@@]24OO3 [Artemisone] | 2.82 | 89.1 µg/mL and 222 µM | 115 µg/mL and 286 µM | 278 µg/mL and 692 µM | 86.1 µg/mL and 214 µM | 0.12 ± 0.006 | 0.46 ± 0.013 | 0.44 ± 0.024 | 97.7 µL/min/mg |  |  | 
3 | O=C1C(O)=C([C@H]2CC[C@H](c3ccc(Cl)cc3)CC2)C(=O)c2ccccc21 [Atovaquone] | 5.3 | 0.26 µg/mL and 0.71 µM | 1.83 µg/mL and 4.99 µM | 6.41 µg/mL and 17.5 µM | < 0.05 µg/mL and < 0.1 µM | 0.002 |  | ~0.002 | < 7 µL/min/mg | > 20 µM | nmi | 
4 | CC[C@H]1OC(=O)[C@H](C)[C@@H](O[C@H]2C[C@@](C)(OC)[C@@H](O)[C@H](C)O2)[C@H](C)[C@@H](O[C@@H]2O[C@H](C)C[C@H](N(C)C)[C@H]2O)[C@](C)(O)C[C@@H](C)CN(C)[C@H](C)[C@@H](O)[C@]1(C)O [Azithromycin] | 1.1 | 1180 µg/mL and 1570 µM | 1440 µg/mL and 1930 µM | > 2000 µg/mL and > 2670 µM | > 2000 µg/mL and > 2670 µM | 0.71 | 0.76 ± 0.065 | 0.7 ± 0.06 | < 7 µL/min/mg | > 20 µM | nmi | 
5 | CC(C)NC(=N)NC(=N)Nc1ccc(Cl)c(Cl)c1 [Chlorproguanil] | 1.1 | > 2000 µg/mL and > 6940 µM | 1100 µg/mL and 3810 µM | 1670 µg/mL and 5780 µM | 1420 µg/mL and 4930 µM | 0.1 ± 0.007 | 0.5 ± 0.02 | 0.052 ± 0.004 | < 7 µL/min/mg | 1.4 µM |  | solubility [2, 10]: > 2000 µg/mL; Ki (CYP2D6): 0.87 µM
6 | C[C@H]1[C@@H](O)O[C@@H]2O[C@@]3(C)CC[C@H]4[C@H](C)CC[C@@H]1[C@@]24OO3 [Dihydroartemisinin] | 2.3 | 140 µg/mL and 492 µM |  |  |  |  |  |  | 16.6 µL/min/mg | > 20 µM | nmi | logD [1, 11]: 2.3; fraction unbound at […] ([3]; human, pooled plasma, ultracentrifugation, instability evident, estimate only, read-out: Fraction unbound, human plasma): 0.21 ± 0.01; fraction unbound at […] [3, 12]: 0.21; fraction unbound at […], 500 ng/mL ([4]; isolated protein, pH 7.4, instability evident, estimate only): 0.34 ± 0.018; fraction unbound at […] ([5]; pH 7.4, instability evident, estimate only): 0.87 ± 0.1
7 | C[C@H]1c2cccc(O)c2C(=O)C2=C(O)[C@]3(O)C(=O)C(C(N)=O)=C(O)[C@@H](N(C)C)[C@@H]3[C@@H](O)[C@@H]21 [Doxycyclin] |  | > 2000 µg/mL and > 4500 µM | > 2000 µg/mL and > 4500 µM | > 2000 µg/mL and > 4500 µM | > 2000 µg/mL and > 4500 µM | 0.23 | 0.41 ± 0.023 | 0.93 ± 0.045 | < 7 µL/min/mg | > 20 µM | nmi | solubility [2, 10]: > 2000 µg/mL
8 | CCCCN(CCCC)CCC(O)c1cc2c(Cl)cc(Cl)cc2c2cc(C(F)(F)F)ccc12 (stereo not shown) [Halofantrine] |  | 12.7 µg/mL and 25.4 µM | 69.9 µg/mL and 140 µM | 739 µg/mL and 1480 µM | < 0.05 µg/mL and < 0.1 µM | 0.13 |  | 0.002 ± 0.0002 |  | 0.27 µM |  | fraction unbound at […], 500 ng/mL ([4]; Albumax medium, pH 7.4): 0.008 ± 0.001; microsomal CLint at 1 µM ([6]; microsomes): 26.9 µL/min/mg; Ki (CYP2D6): 0.19 µM
9 | C[C@H]1Cc2c([nH]c3cc(Cl)c(F)cc23)[C@@]2(N1)C(=O)Nc1ccc(Cl)cc12 [KAE609] |  | 1540 µg/mL and 3940 µM | 111 µg/mL and 284 µM | 1240 µg/mL and 3180 µM | 30.4 µg/mL and 77.9 µM | 0.057 | 0.044 ± 0.004 | 0.019 ± 0.001 | 24.1 µL/min/mg | 5.9 µM |  | Ki (CYP2D6): 3.7 µM
10 | CC1(C)c2nc(-c3ccc(F)cc3)c(Nc3ccc(F)cc3)n2CCN1C(=O)CN [KAF156] | 2.06 | > 2000 µg/mL and > 4850 µM | 1600 µg/mL and 3880 µM | > 2000 µg/mL and > 4850 µM | 560 µg/mL and 1360 µM | 0.11 | 0.38 ± 0.017 | 0.14 ± 0.006 | 14.7 µL/min/mg |  |  | solubility [2, 10]: 400 to 500 µg/mL (≈ 972 to 1220 µM)
11 | CS(=O)(=O)c1ccc(-c2cnc(N)c(-c3ccc(C(F)(F)F)nc3)c2)cc1 [MMV048] | 2.5 | 1200 µg/mL and 3040 µM | 6.73 µg/mL and 17.1 µM | 7.47 µg/mL and 19 µM | 4.52 µg/mL and 11.5 µM | 0.17 | 0.46 ± 0.022 | 0.61 ± 0.014 | < 7 µL/min/mg | > 20 µM |  | inhibition at 20 µM (CYP2D6): 16%
12 | OC(c1cc(C(F)(F)F)nc2c(C(F)(F)F)cccc12)C1CCCCN1 (stereo not shown) [Mefloquine] | 2.7 | 740 µg/mL and 1960 µM | 584 µg/mL and 1540 µM | > 2000 µg/mL and > 5200 µM | 290 µg/mL and 767 µM | 0.058 |  | 0.05 ± 0.006 |  |  |  | fraction unbound at […], 500 ng/mL ([4]; Albumax medium, pH 7.4): 0.27 ± 0.019; microsomal CLint at 1 µM ([6]; microsomes): < 7 µL/min/mg
13 | Clc1ccc2c(N3CCN(CCCN4CCN(c5ccnc6cc(Cl)ccc56)CC4)CC3)ccnc2c1 [Piperaquine] |  | > 2000 µg/mL and > 3700 µM | 103 µg/mL and 192 µM | 60.7 µg/mL and 113 µM | < 0.5 µg/mL and < 0.9 µM | 0.042 | 0.019 ± 0.004 | 0.013 ± 0.002 | 20.1 µL/min/mg | > 20 µM | nmi | 
14 | COc1ncnc(NS(=O)(=O)c2ccc(N)cc2)c1OC [Sulfadoxine] |  | 324 µg/mL and 1040 µM | 858 µg/mL and 2770 µM | 474 µg/mL and 1530 µM | > 1900 µg/mL and > 6400 µM | 0.036 ± 0.001 | 0.5 ± 0.03 | 0.93 ± 0.086 | < 7 µL/min/mg | > 20 µM | nmi | 
15 | COc1cc(C)c2c(Oc3cccc(C(F)(F)F)c3)c(OC)cc(NC(C)CCCN)c2n1 (stereo not shown) [Tafenoquine] | 4.24 | > 2000 µg/mL and > 2800 µM | 15.8 µg/mL and 34.1 µM | 1310 µg/mL and 2820 µM | 18.3 µg/mL and 39.5 µM | 0.11 |  | 0.002 ± 0.0003 | < 7 µL/min/mg | > 20 µM |  | logD [1, 11]: 4.24; FaSSGF solubility ([2]; FaSSGF): > 2000 µg/mL; fraction unbound at […] [3, 12]: 0.0007; inhibition at 20 µM (CYP2D6): 35%
